Source: patent publication US11319315B2, “Cyclohexyl acid triazole azoles as LPA antagonists” (BRISTOL-MYERS SQUIBB COMPANY, priority 2017, dated 2022)
pIC50: −log10 of the molar value. Where two headings read alike, the source gives them in different places.

Assays:
IPF patients = details: 26-week clinical trial in IPF patients; cited from earlier work
CD-1 female mice = experiment: LPA challenge with plasma histamine evaluation (acute in vivo histamine assay); design: species or system mouse; details: 1 mg/kg dose
Experimental: LPA Challenge with Plasma Histamine Evaluation.
Compound is dosed orally p.o. 2 hours to CD-1 female mice prior to the LPA challenge. The mice are then dosed via tail vein (IV) with 0.15 mL of LPA in 0.1% BSA/PBS (2 μg/μL). Exactly 2 minutes following the LPA challenge, the mice are euthanized by decapitation and the trunk blood is collected. These samples are collectively centrifuged and individual 75 μL samples are frozen at −20° C. until the time of the histamine assay.
The plasma histamine analysis was run by standard EIA (Enzyme Immunoassay) methods. Plasma samples were thawed and diluted 1:30 in 0.1% BSA in PBS. The EIA protocol for histamine analysis as outlined by the manufacturer was followed (Histamine EIA, Oxford Biomedical Research, EA #31).
The LPA used in the assay is formulated as follows: LPA (l-oleoyl-2-hydroxy-sn-glycero-3-phosphate (sodium salt), 857130P, Avanti Polar Lipids) is prepared in 0.1% BSA/PBS for total concentration of 2 μg/μL. 13 mg of LPA is weighed and 6.5 mL 0.1% BSA added, vortexed and sonicated for 1 hour until a clear solution is achieved.

human LPA1 = target: T1, human LPA1 (Homo sapiens, UniProt Q92633); experiment: LPA1 functional antagonist assay (LPA-induced calcium flux in CHO cells overexpressing human LPA1); format: cell-based; details: read-out: hLPA1 IC50
T1 construct: expressed in transfected cells; host or cells: Chinese hamster ovary (CHO) cells
T1 sequence (Q92633 whole entry): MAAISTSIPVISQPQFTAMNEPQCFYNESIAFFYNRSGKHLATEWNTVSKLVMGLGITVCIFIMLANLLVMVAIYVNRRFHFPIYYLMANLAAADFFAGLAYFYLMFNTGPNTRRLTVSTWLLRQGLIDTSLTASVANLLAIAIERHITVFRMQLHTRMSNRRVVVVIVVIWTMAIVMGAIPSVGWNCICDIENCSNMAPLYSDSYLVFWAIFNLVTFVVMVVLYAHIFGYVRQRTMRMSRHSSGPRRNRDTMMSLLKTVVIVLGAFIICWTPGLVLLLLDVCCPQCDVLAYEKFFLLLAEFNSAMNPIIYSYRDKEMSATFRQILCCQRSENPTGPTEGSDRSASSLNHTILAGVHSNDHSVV
Procedure, shortened: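 Calcium flux was triggered by 10 nM LPA after 20 min room-temperature compound pre-incubation (final 0.08 nM to 5 μM, 0.5% DMSO) in human LPA1-overexpressing CHO cells carrying calcium dye. Buffer: HBSS with Ca/Mg, 20 mM HEPES, 0.1% fatty-acid-free BSA; IC50s from 4-parameter logistic fits.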

nerve-injured mice = details: pretreatment; cited from earlier work
[1] = system: pancreatic cancer cell lines; details: cited from earlier work
UUO mice = details: cited from earlier work
MCT = MCT cells, co-treatment with LPA; cited from earlier work
[2] = system: human foetal lung fibroblasts; details: cited from earlier work
[3] = inhibition of calcium flux induced by 10 nM LPA, CHO cells overexpressing human LPA1

Row | Structure (SMILES) | pIC50 (human LPA1) | other results
1 | Cc1noc(-c2ccc(-c3ccc(C4(C(=O)O)CC4)cc3)cc2)c1NC(=O)O[C@H](C)c1ccccc1 [BMS-986020] |  | rate of FVC (forced vital capacity) decline (IPF patients): significantly reduce
2 | Cc1nc(-c2nnn(C)c2CNc2noc(CC3CC3)n2)ccc1O[C@H]1CCC[C@H](C(=O)O)C1 [Example 70] |  | histamine, acute in vivo histamine assay in CD-1 mice (CD-1 female mice): −39%; pIC50 (human LPA1; [3]): 7.82
3 | CCc1nc(-c2nnn(C)c2CNc2nc(CC(C)C)ns2)ccc1O[C@H]1CCC[C@H](C(=O)O)C1 [Example 395, (1S,3S)-3-((2-ethyl-6-(5-(((3-isobutyl-1,2,4-thiadiazol-5-yl)amino)methyl)-1-methyl-1H-1,2,3-triazol-4-yl)pyridin-3-yl)oxy)cyclohexane-1-carboxylic acid] | 7.66 | 
4 | CCc1nc(-c2nnn(C)c2CNc2nc(C3CCC3)ns2)ccc1O[C@H]1CCC[C@H](C(=O)O)C1 [Example 396, (1S,3S)-3-((6-(5-(((3-cyclobutyl-1,2,4-thiadiazol-5-yl)amino)methyl)-1-methyl-1H-1,2,3-triazol-4-yl)-2-ethylpyridin-3-yl)oxy)cyclohexane-1-carboxylic acid] | 7.48 | 
5 | CCc1nc(-c2nnn(C)c2CNc2nc(C3CC3)ns2)ccc1O[C@H]1CCC[C@H](C(=O)O)C1 [Example 397, (1S,3S)-3-((6-(5-(((3-cyclopropyl-1,2,4-thiadiazol-5-yl)amino)methyl)-1-methyl-1H-1,2,3-triazol-4-yl)-2-ethylpyridin-3-yl)oxy)cyclohexane-1-carboxylic acid] | 6.03 | 
6 | CCc1nc(-c2nnn(C)c2CNc2nc(C(C)C)ns2)ccc1O[C@H]1CCC[C@H](C(=O)O)C1 [Example 398, (1S,3S)-3-((2-ethyl-6-(5-(((3-isopropyl-1,2,4-thiadiazol-5-yl)amino)methyl)-1-methyl-1H-1,2,3-triazol-4-yl)pyridin-3-yl)oxy)cyclohexane-1-carboxylic acid] | 7.23 | 
7 | CCCc1nsc(NCc2c(-c3ccc(O[C@H]4CCC[C@H](C(=O)O)C4)c(CC)n3)nnn2C)n1 [Example 399, (1S,3S)-3-((2-ethyl-6-(1-methyl-5-(((3-propyl-1,2,4-thiadiazol-5-yl)amino)methyl)-1H-1,2,3-triazol-4-yl)pyridin-3-yl)oxy)cyclohexane-1-carboxylic acid] | 7.14 | 
8 | Cc1nc(-c2nnn(C)c2Cn2nnc(OCC3CC4CCC3C4)n2)ccc1O[C@H]1CCC[C@H](C(=O)O)C1 (stereo partly drawn) [Example 405, (1S,3S)-3-{[6-(5-{[5-({bicyclo[2.2.1]heptan-2-yl}methoxy)-2H-1,2,3,4-tetrazol-2-yl]methyl}-1-methyl-1H-1,2,3-triazol-4-yl)-2-methylpyridin-3-yl]oxy}cyclohexane-1-carboxylic acid] | 7.33 | 
9 | Cc1nc(-c2nnn(C)c2Cn2nnc(N(C)CC3CC3)n2)ccc1O[C@H]1CCC[C@H](C(=O)O)C1 [Example 408, (1S,3S)-3-({6-(5-({5-[(cyclopropylmethyl)(methyl)amino]-2H-1,2,3,4-tetrazol-2-yl}methyl)-1-methyl-1H-1,2,3-triazol-4-yl]-2-methylpyridin-3-yl}oxy)cyclohexane-1-carboxylic acid] | 6.47 | 
10 | Cn1nnc(-c2ncc(O[C@H]3CCC[C@H](C(=O)O)C3)cc2F)c1CNc1noc(CCC2CC2)n1 [Example 409, (1S,3S)-3-((6-(5-(((5-(2-cyclopropylethyl)-1,2,4-oxadiazol-3-yl)amino)methyl)-1-methyl-1H-1,2,3-triazol-4-yl)-5-fluoropyridin-3-yl)oxy)cyclohexane-1-carboxylic acid] | 5.72 | 
11 | Cc1nc(-c2nnn(C)c2CNc2noc(COCCCCF)n2)ccc1O[C@H]1CCC[C@H](C(=O)O)C1 [Example 410, (1S,3S)-3-((6-(5-(((5-((4-fluoro-butoxy)methyl)-1,2,4-oxadiazol-3-yl)amino)methyl)-1-methyl-1H-1,2,3-triazol-4-yl)-2-methylpyridin-3-yl)oxy)cyclohexane-1-carboxylic acid] | 7.37 | 
12 | Cc1nc(-c2nnn(C)c2Nc2nc(-c3ccccc3)no2)ccc1O[C@H]1CCC[C@H](C(=O)O)C1 [Example 411, (1 S,3S)-3-((2-methyl-6-(1-methyl-5-((3-phenyl-1,2,4-oxadiazol-5-yl)amino)-1H-1,2,3-triazol-4-yl)pyridin-3-yl)oxy)cyclohexane-1-carboxylic acid] |  | pIC50 (human LPA1; [3]): 5.84
13 | Cc1nc(-c2nnn(C)c2Cn2nnc(C3CC3)n2)ccc1O[C@H]1CCC[C@H](C(=O)O)C1 [Example 412, (1S,3S)-3-((6-(5-((5-cyclopropyl-2H-tetrazol-2-yl)methyl)-1-methyl-1H-1,2,3-triazol-4-yl)-2-methyl-pyridin-3-yl)oxy)cyclohexane-1-carboxylic acid] | 6.42 | 
14 | C[C@@H](N)[C@H]1CC[C@H](C(=O)Nc2ccncc2)CC1 [Example Y-27632] |  | allodynia and hyperalgesia (nerve-injured mice): completely abolished
15 | Cc1noc(-c2ccc(CSCCC(=O)O)cc2)c1NC(=O)OC(C)c1ccccc1Cl (stereo not shown) [Ki16425] |  | LPA-induced and ascites-induced invasion activity ([1]; highly peritoneal metastatic pancreatic cancer cell line): blocked; in vitro migration in response to LPA and peritoneal fluid (ascites) from pancreatic cancer patients ([1]; pancreatic cancer cell lines): effectively blocked; renal fibrosis profile in UUO mice (UUO mice): closely resembled the profile of LPA1 (−/−) mice; LPA-induced CTGF expression (MCT): almost completely suppressed; chemotaxis of human foetal lung fibroblasts induced by BAL from IPF patients [2]: blocked

Continued, in another order:

Row | pIC50 (human LPA1) | Structure (SMILES) | other results
16 | 6.89 | Cc1nc(-c2nnn(C)c2Cc2nnn(CCC3CC3)n2)ccc1O[C@H]1CCC[C@H](C(=O)O)C1 [Example 400, (1S,3S)-3-{[6-(5-{[2-(2-cyclo-propylethyl)-2H-1,2,3,4-tetrazol-5-yl]methyl}-1-methyl-1H-1,2,3-triazol-4-yl)-2-methylpyridin-3-yl]oxy}cyclohexane-1-carboxylic acid] | pIC50 (human LPA1; [3]): 6.89
17 | 5.95 | COCCCn1nnc(Cc2c(-c3ccc(O[C@H]4CCC[C@H](C(=O)O)C4)c(C)n3)nnn2C)n1 [Example 401, (1S,3S)-3-{[6-(5-{[2-(3-methoxy-propyl)-2H-1,2,3,4-tetrazol-5-yl]methyl}-1-methyl-1H-1,2,3-triazol-4-yl)-2-methylpyridin-3-yl]oxy}cyclohexane-1-carboxylic acid] | 
18 | 7.33 | Cc1nc(-c2nnn(C)c2Cc2nnn(Cc3ccccc3)n2)ccc1O[C@H]1CCC[C@H](C(=O)O)C1 [Example 402, (1S,3S)-3-[(6-{5-[(2-benzyl-2H-1,2,3,4-tetrazol-5-yl)methyl]-1-methyl-1H-1,2,3-triazol-4-yl}-2-methylpyridin-3-yl)oxy]cyclo-hexane-1-carboxylic acid] | 
19 | 6.60 | COC[C@@H](C)Oc1nnn(Cc2c(-c3ccc(O[C@H]4CCC[C@H](C(=O)O)C4)c(C)n3)nnn2C)n1 [Example 403, (1S,3S)-3-[(6-{5-[(5-{[(2R)-1-methoxypropan-2-yl]oxyl}-2H-1,2,3,4-tetrazol-2-yl)methyl]-1-methyl-1H-1,2,3-triazol-4-yl}-2-methylpyridin-3-yl)oxy]cyclo-hexane-1-carboxylic acid] | 
20 | 6.44 | COCCCOc1nnn(Cc2c(-c3ccc(O[C@H]4CCC[C@H](C(=O)O)C4)c(C)n3)nnn2C)n1 [Example 404, (1S,3S)-3-{[6-(5-{[5-(3-methoxy-propoxy)-2H-1,2,3,4-tetrazol-2-yl]methyl}-1-methyl-1H-1,2,3-triazol-4-yl)-2-methylpyridin-3-yl]oxy}cyclohexane-1-carboxylic acid] | 
21 | 6.17 | COCCCCCOc1nnn(Cc2c(-c3ccc(O[C@H]4CCC[C@H](C(=O)O)C4)c(C)n3)nnn2C)n1 [Example 406, (1S,3S)-3-({6-[5-({5-[(5-methoxy-pentyl)oxy]-2H-1,2,3,4-tetrazol-2-yl}methyl)-1-methyl-1H-1,2,3-triazol-4-yl]-2-methylpyridin-3-yl}oxy)cyclohexane-1-carboxylic acid] | 
22 | 6.85 | COCCOc1nnn(Cc2c(-c3ccc(O[C@H]4CCC[C@H](C(=O)O)C4)c(C)n3)nnn2C)n1 [Example 407, (1S,3S)-3-{[6-(5-{[5-(2-methoxy-ethoxy)-2H-1,2,3,4-tetrazol-2-yl]methyl}-1-methyl-1H-1,2,3-triazol-4-yl)-2-methylpyridin-3-yl]oxy}cyclohexane-1-carboxylic acid] | 
